Measurements as given in ChEMBL document CHEMBL4325868, “Design, synthesis and antitubercular activity of 4-alkoxy-triazoloquinolones able to inhibit the M. tuberculosis DNA gyrase” (Eur J Med Chem, 2019).
Converted amounts (≈) assume the structure as drawn.

What was measured:
[1] = test system: Mycobacterium tuberculosis; test: Antitubercular activity against Mycobacterium tuberculosis H37Rv after 7 days by resazurin microtiter assay; type: functional; conditions: 168 h
[2] = Cytotoxicity against African green monkey Vero cells assessed as cell viability at 100 uM after 72 hrs by MTT assay relative to control; type: cell-based; conditions: chlorocebus sabaeus, read-out: Activity
[3] = target: DNA gyrase subunit A/DNA gyrase subunit B (Mycobacterium tuberculosis (strain ATCC 25618 / H37Rv), UniProt P9WG45+P9WG47); test: Inhibition of Mycobacterium tuberculosis DNA gyrase assessed as reduction in supercoiling of relaxed pBR322 DNA substrate after 30 mins by ethidium bromide staining based agarose gel electrophoresis method; type: protein-complex assay
Staphylococcus aureus = test: Antibacterial activity against Staphylococcus aureus ATCC 2913 after overnight incubation by broth dilution assay; type: functional
Salmonella typhimurium = test: Antibacterial activity against Salmonella typhimurium ATCC 14028 after overnight incubation by broth dilution assay; type: functional, Salmonella enterica subsp. enterica serovar Typhimurium; conditions: Salmonella enterica
Enterococcus faecalis = test: Antibacterial activity against Enterococcus faecalis ATCC 2491 after overnight incubation by broth dilution assay; type: functional
Escherichia coli = test: Antibacterial activity against Escherichia coli ATCC 15922 after overnight incubation by broth dilution assay; type: functional
Candida albicans = test: Antifungal activity against Candida albicans after overnight incubation by broth dilution assay; type: functional
Candida tropicalis = test: Antifungal activity against Candida tropicalis after overnight incubation by broth dilution assay; type: functional
[4] = test system: Mycobacterium tuberculosis; test: Antitubercular activity against Mycobacterium tuberculosis isolate 231 after 7 days by resazurin microtiter assay; type: functional; conditions: isolate 231, 168 h
[5] = test system: Mycobacterium tuberculosis; test: Antitubercular activity against Mycobacterium tuberculosis isolate 1574 after 7 days by resazurin microtiter assay; type: functional; conditions: isolate 1574, 168 h
[6] = test system: Mycobacterium tuberculosis; test: Antitubercular activity against Mycobacterium tuberculosis isolate 1777 after 7 days by resazurin microtiter assay; type: functional; conditions: isolate 1777, 168 h
[7] = test system: Mycobacterium tuberculosis; test: Antitubercular activity against Mycobacterium tuberculosis isolate 147 after 7 days by resazurin microtiter assay; type: functional; conditions: isolate 147, 168 h
[8] = test system: Mycobacterium tuberculosis; test: Antitubercular activity against Mycobacterium tuberculosis isolate 1657 after 7 days by resazurin microtiter assay; type: functional; conditions: isolate 1657, 168 h
[9] = test system: Mycobacterium tuberculosis; test: Antitubercular activity against Mycobacterium tuberculosis isolate 1535 after 7 days by resazurin microtiter assay; type: functional; conditions: isolate 1535, 168 h
[10] = test system: Mycobacterium tuberculosis; test: Antitubercular activity against Mycobacterium tuberculosis isolate 1567 after 7 days by resazurin microtiter assay; type: functional; conditions: isolate 1567, 168 h

Chain of DNA gyrase subunit A/DNA gyrase subunit B (P9WG45 whole entry): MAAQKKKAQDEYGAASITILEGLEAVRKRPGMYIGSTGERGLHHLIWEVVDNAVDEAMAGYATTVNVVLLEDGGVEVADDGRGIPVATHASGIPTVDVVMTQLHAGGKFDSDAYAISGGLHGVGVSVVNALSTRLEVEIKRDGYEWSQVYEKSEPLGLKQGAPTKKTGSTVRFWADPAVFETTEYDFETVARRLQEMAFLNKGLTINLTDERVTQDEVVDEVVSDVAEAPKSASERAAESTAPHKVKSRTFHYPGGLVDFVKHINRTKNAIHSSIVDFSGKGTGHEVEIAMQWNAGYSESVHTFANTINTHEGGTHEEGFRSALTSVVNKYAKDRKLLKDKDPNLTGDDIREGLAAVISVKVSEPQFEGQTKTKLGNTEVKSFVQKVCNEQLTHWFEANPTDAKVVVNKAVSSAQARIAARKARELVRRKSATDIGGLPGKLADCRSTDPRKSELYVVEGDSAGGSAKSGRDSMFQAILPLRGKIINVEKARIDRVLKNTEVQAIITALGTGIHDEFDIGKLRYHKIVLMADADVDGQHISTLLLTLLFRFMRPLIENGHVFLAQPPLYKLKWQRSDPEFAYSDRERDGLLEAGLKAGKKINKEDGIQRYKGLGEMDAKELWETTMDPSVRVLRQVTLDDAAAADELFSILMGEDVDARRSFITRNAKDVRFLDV
Chain of DNA gyrase subunit A/DNA gyrase subunit B (P9WG47 whole entry): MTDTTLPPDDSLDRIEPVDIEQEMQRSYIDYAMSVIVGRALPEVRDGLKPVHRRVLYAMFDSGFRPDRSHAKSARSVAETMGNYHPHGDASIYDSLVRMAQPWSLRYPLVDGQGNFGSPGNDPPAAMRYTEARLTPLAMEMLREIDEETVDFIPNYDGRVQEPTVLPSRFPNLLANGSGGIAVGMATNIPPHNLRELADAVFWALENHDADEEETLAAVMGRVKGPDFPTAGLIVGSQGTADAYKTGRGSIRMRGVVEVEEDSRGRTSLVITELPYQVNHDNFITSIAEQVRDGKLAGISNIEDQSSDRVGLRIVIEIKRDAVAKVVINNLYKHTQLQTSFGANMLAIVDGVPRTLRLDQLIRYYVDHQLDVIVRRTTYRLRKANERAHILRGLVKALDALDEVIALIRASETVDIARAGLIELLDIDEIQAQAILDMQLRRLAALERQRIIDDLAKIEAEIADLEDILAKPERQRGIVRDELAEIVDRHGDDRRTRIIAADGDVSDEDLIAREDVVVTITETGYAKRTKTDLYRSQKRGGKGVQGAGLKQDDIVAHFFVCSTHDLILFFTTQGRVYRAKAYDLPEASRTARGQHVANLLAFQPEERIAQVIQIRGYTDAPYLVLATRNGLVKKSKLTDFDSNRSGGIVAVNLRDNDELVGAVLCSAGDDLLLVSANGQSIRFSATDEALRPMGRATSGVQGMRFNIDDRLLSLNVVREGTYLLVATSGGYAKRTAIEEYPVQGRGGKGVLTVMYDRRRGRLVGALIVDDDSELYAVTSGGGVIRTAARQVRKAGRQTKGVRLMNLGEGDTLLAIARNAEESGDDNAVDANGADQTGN

Compound	MIC [1] [µM]	viability at 72 h, 100 µM [2] [%]	other results
CCn1cc(C(=O)O)c(=O)c2cc(OC)c3nn(C)nc3c21	> 100	94.2	
COc1cc2c(=O)c(C(=O)O)c[nH]c2c2nnn(C)c12	> 100	90.2	IC50 [3]: 91.3 µM
CCn1cc(C(=O)O)c(=O)c2cc(F)c3c(nnn3C)c21	> 100	95.1	
CCOC(=O)c1cnc2c(cc(OC)c3nnn(C)c32)c1OC	> 100	80.8	
Cn1cc(C(=O)O)c(=O)c2cc([N+](=O)[O-])c3c(nnn3C)c21	> 100	88.8	
CCOc1c(C(=O)O)cnc2c1cc(OC)c1nnn(C)c12	> 100	83.6	
CCSc1cc2c(=O)c(C(=O)O)cn(C)c2c2nnn(C)c12	50.3 (≈ 16 µg/mL)	87.7	
Cn1cc(C(=O)O)c(=O)c2cc(F)c3c(nnn3C)c21	57.9 (≈ 16 µg/mL)	81.2	
CCn1cc(C(=O)O)c(=O)c2cc(OC)c3c(nnn3C)c21	52.9 (≈ 16 µg/mL)	90.1	
COC(=O)c1cn(C)c2c(ccc3c2nnn3C)c1=O	> 100	91.2	
COc1cc2c(=O)c(C(=O)O)c[nH]c2c2c1nnn2C	> 100	92.9	
CCOC(=O)c1cnc2c(cc(OC)c3nnn(C)c32)c1OCC	> 100	85.4	
COc1c(C(=O)O)cnc2c1cc(OC)c1nnn(C)c12	> 100	85.7	
CCOc1cc2c(=O)c(C(=O)O)cn(C)c2c2nnn(C)c12	6.6 (≈ 2 µg/mL)	94.3	IC50 [3]: 28.2 µM; MIC (Staphylococcus aureus): > 100 µM; MIC (Salmonella typhimurium): > 100 µM; MIC (Enterococcus faecalis): > 100 µM; MIC (Escherichia coli): > 100 µM; MIC (Candida albicans): > 100 µM; MIC (Candida tropicalis): > 100 µM
CCOc1cc2c(=O)c(C(=O)O)cn(CC)c2c2nnn(C)c12	25.3 (≈ 8 µg/mL)	92.1	
CCOC(=O)c1cn(C)c2c(cc(OC)c3c2nnn3C)c1=O	> 100	92	
CCOC(=O)c1cn(CC)c2c(cc(OC)c3c2nnn3C)c1=O	> 100	84.4	
COc1cc2c(=O)c(C(=O)O)cn(C)c2c2nnn(C)c12	6.9 (≈ 1.99 µg/mL)	90.4	MIC [4]: 4 µM (≈ 1.15 µg/mL); MIC [5]: 32 µM (≈ 9.22 µg/mL); MIC [6]: 8 µM (≈ 2.31 µg/mL); MIC [7]: 8 µM (≈ 2.31 µg/mL); MIC [8]: 4 µM (≈ 1.15 µg/mL); MIC [9]: 16 µM (≈ 4.61 µg/mL); MIC [10]: 32 µM (≈ 9.22 µg/mL); IC50 [3]: 27.6 µM; MIC (Staphylococcus aureus): > 100 µM; MIC (Salmonella typhimurium): > 100 µM; MIC (Enterococcus faecalis): > 100 µM; MIC (Escherichia coli): > 100 µM; MIC (Candida albicans): > 100 µM; MIC (Candida tropicalis): > 100 µM
CCOC(=O)c1cn(CC)c2c(cc(OC)c3nn(C)nc32)c1=O	> 100	79.3	
CCOC(=O)c1cn(CC)c2c(cc(OCC)c3c2nnn3C)c1=O	> 100	95.1	
COc1cc2c(=O)c(C(=O)O)cn(C)c2c2nn(C)nc12	27.8 (≈ 8.01 µg/mL)	89.5	
O=C(O)c1cn(C2CC2)c2cc(N3CCNCC3)c(F)cc2c1=O [CIPROFLOXACIN]	1.5 (≈ 0.497 µg/mL)	95.2	
